Target: CK2A1 (CK2α/β) (Homo sapiens, UniProt P68400)
Assay: CK2 kinase assay, CK2A1 (CK2α/β)
Type: biochemical
Conditions: Table A; read-out: CK2A1 (CK2α/β) (IC50)

Sequence of CK2A1 (CK2α/β) (P68400 whole entry, species assumed): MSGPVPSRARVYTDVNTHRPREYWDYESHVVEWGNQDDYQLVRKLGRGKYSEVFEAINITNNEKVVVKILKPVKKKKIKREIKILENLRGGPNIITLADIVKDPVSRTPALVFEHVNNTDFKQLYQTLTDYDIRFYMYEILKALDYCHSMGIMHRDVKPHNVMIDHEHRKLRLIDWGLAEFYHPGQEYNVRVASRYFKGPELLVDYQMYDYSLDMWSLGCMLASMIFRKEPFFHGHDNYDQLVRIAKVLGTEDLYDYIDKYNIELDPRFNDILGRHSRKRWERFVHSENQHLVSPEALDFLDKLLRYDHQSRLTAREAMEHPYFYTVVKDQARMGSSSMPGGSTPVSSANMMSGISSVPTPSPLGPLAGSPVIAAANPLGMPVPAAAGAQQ
Sequence of CK2A1 (CK2α/β) (P67870 whole entry partner, species assumed): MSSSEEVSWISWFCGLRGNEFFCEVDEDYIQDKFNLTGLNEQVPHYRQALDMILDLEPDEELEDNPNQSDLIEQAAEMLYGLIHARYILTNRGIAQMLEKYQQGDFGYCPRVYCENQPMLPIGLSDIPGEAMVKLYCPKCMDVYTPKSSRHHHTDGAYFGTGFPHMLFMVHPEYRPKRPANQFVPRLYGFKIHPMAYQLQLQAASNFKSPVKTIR

SMILES | IC50 [pM]
CCOC1CC1C(=O)N1CC(N2CCN(c3cc(C#N)cc(Nc4nc(NC5CC5)c5ncc(C#N)n5n4)c3Cl)CC2)C1 (stereo not drawn) [Example 520, 2-[(2-chloro-5-cyano-3-{4-[1-(2-ethoxycyclopropane-carbonyl)azetidin-3-yl]piperazin-1-yl}phenyl)amino]-4-(cyclopropylamino)imidazo[2,1-f][1,2,4]triazine-7-carbonitrile] | 4960
COC(=O)N[C@@H]1CCN(c2cc(C#N)cc(Nc3nc(NC4CC4)c4ncc(C#N)n4n3)c2Cl)C[C@H]1OC(=O)[C@H](C)N [Example 195, (3R,4R)-1-(2-chloro-5-cyano-3-((7-cyano-4-(cyclopropylamino)imidazo[2,1-f][1,2,4]triazin-2-yl)amino)phenyl)-4-((methoxycarbonyl)amino)-3-piperidinyl L-alaninate] | 500
COC(=O)N[C@@H]1CCN(c2cc(C#N)cc(Nc3nc(NC4CC4)c4ncc(C#N)n4n3)c2Cl)C[C@H]1OC(=O)C(C)OP(=O)(O)O (stereo partly drawn) [Example 197, (3R,4R)-1-(2-chloro-5-cyano-3-((7-cyano-4-(cyclopropylamino)imidazo[2,1-f][1,2,4]triazin-2-yl)amino)phenyl)-4-((methoxycarbonyl)amino)-3-piperidinyl 2-(phosphonooxy)propanoate] | 5000
N#Cc1cc(Nc2nc(NC3CC3)c3ncc(C#N)n3n2)c(Cl)c(N2CCN(C3CN(C(=O)CN4CCOCC4)C3)CC2)c1 [Example 493, 2-{[2-chloro-5-cyano-3-(4-{1-[2-(morpholin-4-yl)acetyl]azetidin-3-yl}piperazin-1-yl)phenyl]amino}-4-(cyclopropylamino)imidazo[2,1-f][1,2,4]triazine-7-carbonitrile] | 2030
COC(=O)N1CC2CN(c3cc(C#N)cc(Nc4nc(NC5CC5)c5ncc(C#N)n5n4)c3Cl)CC2C1 (stereo not drawn) [Example 462, methyl 5-(2-chloro-5-cyano-3-((7-cyano-4-(cyclopropylamino)imidazo[2,1-f][1,2,4]triazin-2-yl)amino)phenyl)hexahydro-pyrrolo[3,4-c]pyrrole-2(1H)-carboxylate] | 3000
N#Cc1cc(Nc2nc(NC3CC3)c3ncc(C#N)n3n2)c(Cl)c(N2CCN(C(=O)C(F)F)CC2)c1 [Example 75, 2-(2-chloro-5-cyano-3-(4-(2,2-difluoroacetyl)piperazin-1-yl)phenylamino)-4-(cyclopropylamino) imidazo[1,2-f][1,2,4] triazine-7-carbonitrile] | 410
N#Cc1cc(Nc2nc(NC3CC3)c3ncc(C#N)n3n2)c(Cl)c(C2CCN(C3COC3)CC2)c1 [Example 210, 2-((2-chloro-5-cyano-3-(1-(3-oxetanyl)-4-piperidinyl)phenyl)amino)-4-(cyclopropylamino)imidazo[2,1-f][1,2,4]triazine-7-carbonitrile] | 710
CS(=O)(=O)N1CCN(c2cc(C#N)cc(Nc3nc(NC4CC4)c4ncc(C#N)n4n3)c2Cl)CC1 [Example 4, 2-((2-chloro-5-cyano-3-(4-(methylsulfonyl)-1-piperazinyl)phenyl)amino)-4-(cyclopropylamino)imidazo [2,1-f][1,2,4]triazine-7-carbonitrile] | 640
C=C(C)/C=C/CN1CCN(c2cc(C#N)cc(Nc3nc(NC4CC4)c4ncc(C#N)n4n3)c2Cl)CC1 [Example 530, (E)-2-((2-chloro-5-cyano-3-(4-(4-methylpenta-2,4-dien-1-yl)piperazin-1-yl)phenyl)amino)-4-(cyclopropylamino)imidazo[2,1-f][1,2,4]triazine-7-carbonitrile] | 6240
N#Cc1cc(CNCc2ccccn2)c(Cl)c(Nc2nc(NC3CC3)c3ncc(C#N)n3n2)c1 [Example 467, 2-[(2-chloro-5-cyano-3-{[(pyridin-2-ylmethyl)amino]methyl}phenyl)amino]-4-(cyclopropylamino)imidazo[2,1-f][1,2,4]triazine-7-carbonitrile] | 450
CCNc1nc(Nc2cc(NC(=O)OC)cc(N3CCN(C)CC3)c2F)nn2c(C#N)cnc12 [Example 386, methyl (3-((7-cyano-4-(ethylamino)imidazo[2,1-f][1,2,4]triazin-2-yl)amino)-4-fluoro-5-(4-methylpiperazin-1-yl)phenyl)carbamate] | 5790
CN1CCN(C2CN(c3cc(OC(F)F)cc(Nc4nc(NC5CC5)c5ncc(C#N)n5n4)c3Cl)C2)CC1 [Example 405, 2-((2-chloro-5-(difluoromethoxy)-3-(3-(4-methylpiperazin-1-yl)azetidin-1-yl)phenyl)amino)-4-(cyclopropylamino)imidazo[2,1-f][1,2,4]triazine-7-carbonitrile] | 480
COCC(NC1CCN(c2cc(C#N)cc(Nc3nc(NC4CC4)c4ncc(C#N)n4n3)c2Cl)CC1)C1CC1 (racemic) [Example 142, (+/−) 2-((2-chloro-5-cyano-3-(4-((1-cyclopropyl-2-methoxyethyl)amino)-1-piperidinyl)phenyl)amino)-4-(cyclopropylamino)imidazo [2,1-f][1,2,4]triazine-7-carbonitrile] | 670
N#Cc1cc(Nc2nc(NC3CC3)c3ncc(C#N)n3n2)c(Cl)c(N2CCC(NCC(O)CF)CC2)c1 (racemic) [Example 144, (+/−) 2-((2-chloro-5-cyano-3-(4-((3-fluoro-2-hydroxypropyl)amino)-1-piperidinyl)phenyl)amino)-4-(cyclopropylamino)imidazo [2,1-f][1,2,4]triazine-7-carbonitrile] | 1110
CC(C)(O)CNC1CCN(c2cc(C#N)cc(Nc3nc(NC4CC4)c4ncc(C#N)n4n3)c2Cl)CC1 [Example 143, 2-((2-chloro-5-cyano-3-(4-((2-hydroxy-2-methylpropyl)amino)-1-piperidinyl)phenyl)amino)-4-(cyclopropylamino)imidazo [2,1-f][1,2,4]triazine-7-carbonitrile] | 780

Next, values leading:

IC50 [pM] | SMILES
140 | N#Cc1cc(CN=[N+]=[N-])c(Cl)c(Nc2nc(NC3CC3)c3ncc(C#N)n3n2)c1 [Example 683, 2-((3-(azidomethyl)-2-chloro-5-cyanophenyl)amino)-4-(cyclopropylamino)imidazo[2,1-f][1,2,4]triazine-7-carbonitrile]
360 | CCNc1nc(Nc2ccc3c(c2)c(C#N)cn3C2CCN([C@H]3CS(=O)(=O)C[C@@H]3O)CC2)nn2c(C#N)cnc12 [Example 828, 2-((3-cyano-1-(1-((3R,4R)-4-hydroxy-1,1-dioxidotetrahydrothiophen-3-yl)piperidin-4-yl)-1H-indol-5-yl)amino)-4-(ethylamino)imidazo[2,1-f][1,2,4]triazine-7-carbonitrile]
380 | N#Cc1cc(Nc2nc(NC3CC3)c3ncc(C#N)n3n2)c(Cl)c(C(F)(F)CO)c1 [Example 737, 2-((2-chloro-5-cyano-3-(1,1-difluoro-2-hydroxyethyl)phenyl)amino)-4-(cyclopropylamino)imidazo[2,1-f][1,2,4]triazine-7-carbonitrile]
1390 | N#Cc1cc(Nc2nc(NC3CC3)c3ncc(C#N)n3n2)c(Cl)c(N2CCN(CC3CCCCO3)CC2)c1 (stereo not drawn) [Example 609, 2-({2-chloro-5-cyano-3-[4-(oxan-2-ylmethyl)piperazin-1-yl]phenyl}amino)-4-(cyclopropylamino)imidazo [2,1-f][1,2,4]triazine-7-carbonitrile]
1660 | CCNc1nc(Nc2cc(C#N)cc(N3CCC4(CCN(C(C)=O)C4)CC3)c2Cl)nn2c(C#N)cnc12 [Example 787, 2-((3-(2-acetyl-2,8-diazaspiro[4.5]decan-8-yl)-2-chloro-5-cyanophenyl)amino)-4-(ethylamino)imidazo[2,1-f][1,2,4]triazine-7-carbonitrile]
910 | N#Cc1cc(Nc2nc(NC3CC3)c3ncc(C#N)n3n2)c(Cl)c(N2CCN([C@@H]3CS(=O)(=O)C[C@H]3O)CC2)c1 (racemic) [Example 535, rac-2-((2-chloro-5-cyano-3-(4-((3R,4R)-4-hydroxy-1,1-dioxidotetrahydrothiophen-3-yl)piperazin-1-yl)phenyl)amino)-4-(cyclopropylamino)imidazo[2,1-f][1,2,4]triazine-7-carbonitrile]
660 | N#Cc1cc(Nc2nc(NC3CC3)c3ncc(C#N)n3n2)c(Cl)cc1CCCCN1CCOCC1 [Example 572, 2-((2-chloro-5-cyano-4-(4-morpholinobutyl)phenyl)amino)-4-(cyclopropylamino)imidazo[2,1-f][1,2,4]triazine-7-carbonitrile]
740 | CN1CCN2CCN(c3cc(C#N)cc(Nc4nc(NC5CC5)c5ncc(C#N)n5n4)c3Cl)CC2C1=O (racemic) [Example 626, (+/−)-2-((2-chloro-5-cyano-3-(8-methyl-9-oxohexahydro-1H-pyrazino[1,2-a]pyrazin-2(6H)-yl)phenyl)amino)-4-(cyclopropylamino)imidazo[2,1-f][1,2,4]triazine-7-carbonitrile]
1820 | CCNC(=O)OCC1CN(c2cc(C#N)cc(Nc3nc(NC4CC4)c4ncc(C#N)n4n3)c2Cl)CCN1C (stereo not drawn) [Example 703, [4-(2-chloro-5-cyano-3-{[7-cyano-4-(cyclopropylamino)imidazo[2,1-f][1,2,4]triazin-2-yl]amino}phenyl)-1-methylpiperazin-2-yl]methyl N-ethylcarbamate]
1440 | N#Cc1cc(Nc2nc(NC3CC3)c3ncc(C#N)n3n2)c(Cl)c(N2CCN(CCC(F)F)CC2)c1 [Example 595, 2-({2-chloro-5-cyano-3-[4-(3,3-difluoropropyl)piperazin-1-yl]phenyl}amino)-4-(cyclopropylamino)imidazo [2,1-f][1,2,4]triazine-7-carbonitrile]
860 | COCCOCCNc1cc(C#N)cc(Nc2nc(NC3CC3)c3ncc(C#N)n3n2)c1Cl [Example 616, 2-((2-chloro-5-cyano-3-((2-(2-methoxyethoxy)ethyl)amino)phenyl)amino)-4-(cyclopropylamino)imidazo[2,1-f][1,2,4]triazine-7-carbonitrile]
1550 | CC(C)(O)CC1(N2CCN(c3cc(C#N)cc(Nc4nc(NC5CC5)c5ncc(C#N)n5n4)c3Cl)CC2)COC1 [Example 536, 2-((2-chloro-5-cyano-3-(4-(3-(2-hydroxy-2-methylpropyl)oxetan-3-yl)piperazin-1-yl)phenyl)amino)-4-(cyclopropylamino)imidazo[2,1-f][1,2,4]triazine-7-carbonitrile]
